The source of these data is patent US20210380547A1, “UREA DERIVATIVES FOR TREATING AND/OR PREVENTING CANCER” (CENTRE NATIONAL DE LA RECHERCHE SCIENTIFIQUE, priority 2018, published 2021).

Molecules are shown by their SMILES.

The subject of one series is 786-O. As to the kind of experiment: XTT cell viability assay, 786-O. The format is cell-based, human. The note with it: Homo sapiens, 786-0; XTT assay (48 h); standard deviation of 10%; read-out: EC50 (μM) Kidney 786-O. The protocol: (§1) A, B: Naive (786-O, A), and sunitinib-resistant (786-R, B) 786-O cells, were treated with compound #1 or sunitinib (1 to 10 μM) for 48 hr. Cell viability was measured by XTT assays;
(§2) D, E: 786-O (D), 786-R (E), were treated with 2.5 μM compound #1 or 2.5 μM sunitinib for 24 h to 96 h. The cells metabolism was measured by XTT assay;
(§3) Fifty microliters of sodium 3′-[1-phenylaminocarbonyl)-3,4-tetrazolium]-bis(4-methoxy-6-nitro) benzene sulfonic acid hydrate (XTT) reagent was added to each well. The assay is based on the cleavage of the yellow tetrazolium salt XTT to form an orange formazan dye by metabolically active cells. The absorbance of the formazan product, reflecting cell viability, was measured at 490 nm. Each assay was performed in quadruplicate.
(§4) Compounds #1-#14 have been assayed as potential anti-proliferative agents against a panel of human breast head and neck, and kidney tumor cells and hematological malignancies, selected on the basis of their aggressiveness (e.g. incurable triple-negative breast cancer cells: MDA-MB-231; kidney ccRCC cells: RCC4, A498 and 786-O and 786R; head and neck cancer cells: CAL33, CAL33RR, CAL27, and CAL27RR; acute myeloid cell lines: OCI-AML2, OCI-AML3, MolM13, and MolM14; myelodysplastic cell line: SM1; and chronic myeloid cell line: CML). All these cell lines share as common denominator the expression of CXCR1 and CXCR2. The EC50 values have been measured by a XTT colorimetric assay, and compared to those of SB-225002, used as a reference; the results are listed in Table 1.
On the technique in general: Tetrazolium assays rely on reduction of a dye to a coloured formazan, in cell work by metabolically active cells.

The test system of series [1] is macular degeneration model. As to the kind of experiment: Macular degeneration model, clinical angiography. The class given is in vivo, mice. The note with it: Day 14, intraperitoneal 400 μg 3 times a week. The protocol: FIG. 9: Evaluation of compounds #1 and #3 on macular degeneration. Clinical angiography at Day 14: Evaluation of the intensity of the lesion by a score from 0 to 3 (0: no leak; 1: light intensity; 2: moderate intensity; 3: immense marking) on mice treated with compounds #1 and #3. The intensities of the lesions were reported, each point corresponding to a lesion. Three lesions were performed on the eyes of each mouse; […]. • 4 groups of 12 mice were induced on the eyes by laser burnt as follows: • G1: vehicle; • G2 and G3: Compounds #1 and #3: intraperitoneal injection of 400 μg of product 3 times a week; and • G4: dexamethasone (2 mg/kg/day) orally. Clinical angiography at Day 14 on the 12 animals: evaluation of the intensity of the lesion by a score of 0 to 3 (0 no leak, 1=light intensity, 2=moderate intensity, 3=intense marking).

For another series, the system named is MolM13. Briefly: XTT cell viability assay, MolM13. The conditions noted are these: Homo sapiens, MOLM-13; XTT assay (48 h); standard deviation of 10%; read-out: EC50 (μM) AML MolM13. The format is cell-based, human. The protocol:
as §3, §4

A further series has as its system K562. As to the kind of experiment: XTT cell viability assay, K562. The note with it: Homo sapiens, K562; XTT assay (48 h); standard deviation of 10%; read-out: EC50 (μM) CML K562. The format is cell-based, human. The protocol: as §3, §4
The test system of another series is A498. Briefly: XTT cell viability assay, A498. The class given is cell-based, human. The conditions noted are these: Homo sapiens, A498; XTT assay (48 h); standard deviation of 10%; read-out: EC50 (μM) Kidney A498. The protocol: as §3, §4
For the next series, the system named is SKM1. As to the kind of experiment: XTT cell viability assay, SKM1. The format is cell-based, human. The conditions noted are these: Homo sapiens, SKM-1; XTT assay (48 h); standard deviation of 10%; read-out: EC50 (μM) MDS SKM1. The protocol:
as §3, §4

For a further series, the system named is MolM14. As to the kind of experiment: XTT cell viability assay, MolM14. The note with it: Homo sapiens, MOLM-14; XTT assay (48 h); standard deviation of 10%; read-out: EC50 (μM) AML MolM14. The format is cell-based, human. The protocol: as §3, §4
The test system of another series is RCC4. As to the kind of experiment: XTT cell viability assay, RCC4. The class given is cell-based. The note with it: Homo sapiens, XTT assay (48 h), standard deviation of 10%, read-out: EC50 (μM) Kidney RCC4. The protocol: as §3, §4
For the next series, the system named is MDA-MB-231. As to the kind of experiment: XTT cell viability assay, MDA-MB-231. The format is cell-based. The note with it: Homo sapiens, XTT assay (48 h), standard deviation of 10%, read-out: EC50 (μM) Breast MDA-MB-231. The protocol: as §3, §4
A further series relates to OCI-AML3. As to the kind of experiment: XTT cell viability assay, OCI-AML3. The format is cell-based, human. The conditions noted are these: Homo sapiens, OCI-AML-3; XTT assay (48 h); standard deviation of 10%. The protocol:
as §3, §4

A further series concerns OCI-AML2. As to the kind of experiment: XTT cell viability assay, OCI-AML2. The format is cell-based, human. The note with it: Homo sapiens, OCI-AML2; XTT assay (48 h); standard deviation of 10%; read-out: EC50 (μM) AML OCI-AML2. The protocol: as §3, §4
Series [2] has as its system healthy human fibroblasts (FHN). As to the kind of experiment: FACS analysis of cell death markers (AV, PI), healthy fibroblasts. The class given is cell-based. The note with it: 5 μM, 48 h. The protocol:
(§5) FIG. 1: Observation by FACS analyses of early (Annexin AV) and late (Propidium Iodide, PI) apoptosis markers expressed by healthy and malignant cells after treatment with compounds #1 and #2 at 5 μM. CT: negative control.
(§6) Apoptosis analysis: After stimulation, cells were washed with ice-cold PBS and were stained with the annexin-V-fluos staining kit (Roche, Meylan, France) according to the manufacturer's procedure. Fluorescence was measured by using the FL2 (AV) and FL3 (propidium iodide, PI) channels of a fluorescence-activated cell sorter apparatus (Calibur cytometer).
(§7) To complete these XTT assays, malignant (ccRCC and hematological) and healthy (human fibroblasts FHN) cells have been grown with compounds #1 or #2, and after 48h the expression of cell death markers (AV and PI) has been quantified by FACS analyses (FIG. 1).

A further series concerns 786R. As to the kind of experiment: XTT cell viability assay, 786R (sunitinib-resistant). The conditions noted are these: Homo sapiens, 48 h, XTT assay (48 h); sunitinib-resistant; standard deviation of 10%; read-out: EC50 (μM) Kidney 786R. The format is cell-based, human. The protocol: as §1, §2, §3, §4
Series [3] concerns malignant (ccRCC and hematological) cells. Briefly: FACS analysis of cell death markers (AV, PI), malignant cells. The class given is cell-based, human. The note with it: 5 μM, 48 h. The protocol: as §5, §6, §7
Background: In flow cytometry, cells or beads pass a laser one at a time.

Series [4] has as its system CXCL7-dependent HuVEC migration. Briefly: Boyden chamber migration assay, CXCL7-dependent. The note with it: CXCL7 (50 ng/ml). The class given is cell-based. The protocol:
CXCL7 or VEGFA-stimulated chemotaxis assays were monitored using modified Boyden chambers containing polycarbonate membranes (8-μm pores, Transwell; Corning, Sigma). Cells were seeded on the upper side of the filters and chambers were placed on 24-well plates containing CXCL7 (50 ng/ml) or VEGFA (50 ng/ml). Cells were allowed to migrate for 24 hr at 37° C. in 5% CO2. Migratory cells on the lower membrane surface were fixed in 3% paraformaldehyde, stained with 0.1% crystal violet.

For another series, the system named is CAL27RR. Briefly: XTT cell viability assay, CAL27RR (cisplatin-resistant). The class given is cell-based, human. The conditions noted are these: Homo sapiens, light or radiation study; XTT assay (48 h); resistant to irradiation and cisplatin; standard deviation of 10%; read-out: EC50 (μM) Head and Neck CAL27RR. The protocol:
(§8) A, B: Naive (Cal27, A), and cisplatine-resistant (Cal27R, B) Cal27 cells, were treated with compound #1 or cisplatine (1 to 10 μM) for 48 hr. Cell viability was measured by XTT assays;
(§9) C, D: Cal27 (C), cal27R (D), were treated with 2.5 μM compound #1, 2.5 μM cisplatin for 24 h to 96 h. The metabolism of cells was measured by XTT assay.
as §3, §4

For another series, the system named is CAL33RR. Briefly: XTT cell viability assay, CAL33RR. The class given is cell-based. The conditions noted are these: Homo sapiens, light or radiation study; XTT assay (48 h); resistant to irradiation and cisplatin; standard deviation of 10%; read-out: EC50 (μM) Head and Neck CAL33RR. The protocol:
as §3, §4

The subject of a further series is CAL33. As to the kind of experiment: XTT cell viability assay, CAL33. The class given is cell-based. The note with it: Homo sapiens, CAL-33; XTT assay (48 h); standard deviation of 10%; read-out: EC50 (μM) Head and Neck CAL33. The protocol: as §3, §4
Another series concerns CAL27. Briefly: XTT cell viability assay, CAL27. The format is cell-based, human. The conditions noted are these: Homo sapiens, CAL-27, 48 h, XTT assay (48 h); standard deviation of 10%; read-out: EC50 (μM) Head and Neck CAL27. The protocol:
as §8, §9, §3, §4

One may read the EC50 as the concentration needed to bring the measured effect to its halfway point. In the case of `CCOc1ccc2nc(NC(=O)Nc3ccccc3C)sc2c1` [Compound #3, 1-(6-ethoxybenzo[d]thiazol-2-yl)-3-(o-tolyl)urea], the concentration for a half-maximal effect (EC50) was determined as 15 µM in the series with 786-O; 15 µM in the series on MolM13; 4 µM with K562; 15 µM in the series on A498; 15 µM with SKM1; 10 µM in the series on MolM14. Besides, the EC50 is over 25 µM in the series on RCC4, 12 µM in the series on MDA-MB-231, 7 µM with OCI-AML3 and 15 µM with OCI-AML2. Besides, the “intensity of the lesion (score 0 to 3), clinical angiography” value in series [1] was “significant effect”.

For `O=C(Nc1nc2ccc([N+](=O)[O-])cc2s1)Nc1ccccc1Cl` [Compound #2, 1-(2-chlorophenyl)-3-(6-nitrobenzo[d]thiazol-2-yl)urea], in series [2], the “apoptosis of healthy human fibroblasts (FHN)” value was “no increased apoptosis over the control experiment”. The EC50 in the series with 786-O was 5 µM; in the series on 786R, 8 µM; in the series on MolM13 it was 5 µM; in the series with K562, 7 µM; with A498, 5 µM; in the series on SKM1 it was 10 µM. Besides, the EC50 with MolM14 came out at 10 µM; in the series with RCC4, 7 µM; with MDA-MB-231, 8 µM; in the series on OCI-AML3 it was 10 µM; in the series on OCI-AML2 it was 10 µM. For the same compound, in [3], the “early (AV) and late (PI) apoptosis markers on malignant cells” value was “cytotoxic effect on malignant cells”.

On to `Cc1c(F)cccc1NC(=O)Nc1ccc(Cl)c(S(=O)(=O)[C@H]2CCCNC2)c1O` [danirixin, reference compound], for which, in series [4], the “reduction of HuVEC CXCL7-dependent motility (comparison)” value is “less efficient than compound #1”.

Regarding `O=C(Nc1ccc(Br)cc1)Nc1nc2ccc([N+](=O)[O-])cc2s1` [Compound #12, 1-(4-bromophenyl)-3-(6-nitrobenzo[d]thiazol-2-yl)urea], the EC50 with 786-O is 5 µM; in the series with CAL27RR, 2.5 µM; in the series with 786R, 5 µM; with CAL33RR, 20 µM; with CAL33 it was under 2.5 µM; with A498, 7 µM. In addition, the 50% effective concentration (EC50) is 5 µM in the series with CAL27 and 7 µM in the series with RCC4.
